Tests used:
[1] = test system: C13 (cisplatin-resistant) cells; assay: MTT cytotoxicity, C13 (cisplatin-resistant); type: cell-based; conditions: for IC50: C13 (cisplatin-resistant), MTT, 72 h, read-out: IC50 value, cisplatin-resistant cancer, C13; for Resistant Factor, OV2008/C13 pair: C13 (resistant) IC50 over OV2008 (sensitive) IC50
Text: (§1) All cells were obtained from the American Type Culture Collection (Rockville, MD, USA) unless otherwise specified. Immortalized wild-type and Atg7-deficient mouse embryonic fibroblasts (MEFs) were kindly provided by Professor Masaaki Komatsu (Juntendo University, School of Medicine, Japan). Taxol-resistant types of MCF-7, HCT-8, A549 cancers cells and cisplatin-resistant SGC7901 cancer cells were purchased from KeyGEN BioTECH, China. Cisplatin-sensitive or –resistant A2780, OV2008 and C13 cancer cells were kindly provided by Prof. Benjamin Tsang (Department of Obstetrics and Gynecology and Department of Cellular and Molecular Medicine, University of Ottawa, Canada). HCT116 p53^+/+ and p53^−/− isogenic human colon cancer cells were kindly provided by Professor Bert Vogelstein (Ludwig Center at Johns Hopkins, Howard Hughes Medical Institute, USA). All media were supplemented with 10% fetal bovine serum and antibiotics penicillin (50 U/ml) and streptomycin (50 μg/ml; Invitrogen, Paisley, Scotland, UK). All cell cultures were incubated at 37°C in a 5% humidified CO2 incubator.
(§2) All tested compounds were dissolved in DMSO at a final concentration of 50 mmol/L and stored at −20°C before use. Cytotoxicity was assessed by using the 3-(4,5-dimethylthiazol-2-yl)-2, 5-diphenyltetrazolium bromide (MTT) (5.0 mg/ml) assay as previously described. Briefly, 4×10^3 cells per well were seeded in 96-well plates before drug treatments. After overnight culture, the cells were then exposed to different concentrations of selected compounds ([…]) for 72 hours. Cells without drug treatment were used as control. Subsequently, MTT (10 μL) solution was added to each well and incubated at 37°C for 4 hours followed by the addition of 100 μL solubilization buffer (10%SDS in 0.01 mol/L HCl) and overnight incubation. A570 nm was then determined in each well on the next day. The percentage of cell viability was calculated using the following formula: Cell viability (%) = Atreated/Acontrol × 100. Data were obtained from three independent experiments.

[2] = test system: cisplatin-resistant cancer cells (A2780, SGC-7901, OV2008 and C13); assay: MTT cytotoxicity, summary over cisplatin-sensitive/resistant pairs; type: cell-based; conditions: over A2780, SGC-7901, OV2008/C13 pairs
Experimental: as §2

[3] = test system: SGC-7901 cisplatin-resistant cancer cells; assay: MTT cytotoxicity, cisplatin-resistant SGC-7901; type: cell-based; conditions: for IC50: SGC-7901 cisplatin-resistant, MTT, 72 h; for Resistant Factor, SGC-7901: cisplatin-resistant over cisplatin-sensitive IC50, SGC-7901
Text: as §1, §2

[4] = test system: A2780 cisplatin-resistant cancer cells; assay: MTT cytotoxicity, cisplatin-resistant A2780; type: cell-based; conditions: for IC50: A2780 cisplatin-resistant, MTT, 72 h; for Resistant Factor, A2780: cisplatin-resistant over cisplatin-sensitive IC50, A2780
Text: as §1, §2

[5] = test system: SGC-7901 cisplatin-sensitive cancer cells; assay: MTT cytotoxicity, cisplatin-sensitive SGC-7901; type: cell-based; conditions: 72 h
Text: as §1, §2

[6] = test system: A2780 cisplatin-sensitive cancer cells; assay: MTT cytotoxicity, cisplatin-sensitive A2780; type: cell-based; conditions: 72 h
Text: as §1, §2

[7] = test system: OV2008 (cisplatin-sensitive) cells; assay: MTT cytotoxicity, OV2008 (cisplatin-sensitive); type: cell-based; conditions: 72 h, read-out: IC50 value, cisplatin-sensitive cancer, OV2008
Text: as §1, §2

[8] = test system: HCT-8 taxol-resistant cancer cells; assay: MTT cytotoxicity, taxol-resistant HCT-8; type: cell-based; conditions: for IC50: HCT-8 taxol-resistant, MTT, 72 h; for Resistant Factor, HCT-8: IC50 of taxol-resistant cells over IC50 of taxol-sensitive cells
Text: as §1, §2

[9] = test system: A549 taxol-sensitive cancer cells; assay: MTT cytotoxicity, taxol-sensitive A549; type: cell-based; conditions: 72 h
Text: as §1, §2

[10] = test system: MCF-7 taxol-resistant cancer cells; assay: MTT cytotoxicity, taxol-resistant MCF-7; type: cell-based; conditions: for IC50: MCF-7 taxol-resistant, MTT, 72 h; for Resistant Factor, MCF-7: IC50 of taxol-resistant cells over IC50 of taxol-sensitive cells
Text: as §1, §2

[11] = test system: A549 taxol-resistant cancer cells; assay: MTT cytotoxicity, taxol-resistant A549; type: cell-based; conditions: for IC50: A549 taxol-resistant, MTT, 72 h; for Resistant Factor, A549: IC50 of taxol-resistant cells over IC50 of taxol-sensitive cells
Text: as §1, §2

[12] = test system: MCF-7 taxol-sensitive cancer cells; assay: MTT cytotoxicity, taxol-sensitive MCF-7; type: cell-based
Text: as §1, §2

[13] = test system: HCT-8 taxol-sensitive cancer cells; assay: MTT cytotoxicity, taxol-sensitive HCT-8; type: cell-based; conditions: 72 h
Text: as §1, §2

[14] = test system: taxol-resistant MCF-7, HCT-8, and A549 cancer cells; assay: MTT cytotoxicity, summary over taxol-sensitive/resistant MCF-7, HCT-8 and A549 pairs; type: cell-based; conditions: IC50 of taxol-resistant over taxol-sensitive cells; over MCF-7, HCT-8 and A549
Experimental: as §2

[15] = test system: H1975 (EGFR mutant lung cancer) cells; assay: MTT cytotoxicity assay, H1975; type: cell-based; conditions: 72 h
Experimental: as §2

[16] = test system: LLC-1 (mouse lung cancer) cells; assay: MTT cytotoxicity assay, LLC-1; type: cell-based; conditions: LLC-1, MTT, 72 h
Experimental: as §2

[17] = test system: HeLa (cervical cancer) cells; assay: MTT cytotoxicity assay, HeLa; type: cell-based; conditions: 72 h
Experimental: as §2

[18] = test system: normal human LO2 hepatocytes; assay: MTT cytotoxicity assay, LO2; type: cell-based; conditions: 72 h
Experimental: as §2

[19] = test system: A549 (EGFR wild-type lung cancer) cells; assay: MTT cytotoxicity assay, A549; type: cell-based; conditions: 72 h
Experimental: as §2

[20] = test system: HCT116 p53^-/- colon cancer cells; assay: MTT cytotoxicity, HCT116 p53-/-; type: cell-based, human
Text: as §1, §2

[21] = test system: MCF-7 (breast cancer) cells; assay: MTT cytotoxicity assay, MCF-7; type: cell-based; conditions: MCF-7, MTT, 72 h
Experimental: as §2

[22] = test system: HepG2 (liver cancer) cells; assay: MTT cytotoxicity assay, HepG2; type: cell-based; conditions: 72 h
Experimental: as §2

[23] = test system: H1299 (lung cancer) cells; assay: MTT cytotoxicity assay, H1299; type: cell-based, human; conditions: 72 h
Experimental: as §2

[24] = test system: Hep3B (liver cancer) cells; assay: MTT cytotoxicity assay, Hep 3B; type: cell-based; conditions: 72 h
Experimental: as §2

[25] = test system: HCT116 p53^+/+ colon cancer cells; assay: MTT cytotoxicity, HCT116 p53+/+; type: cell-based, human; conditions: 72 h
Text: as §1, §2

**Q.** What does the source list for `N.N.[Cl][Pt][Cl]` [Cisplatin, cis-[Pt^II(NH3)2Cl2], reference compound]?
**A.** IC50 [1]: > 200 µM; Resistant Factor, OV2008/C13 pair [1]: > 11.0; resistant factor in cisplatin-resistant cancers (summary) [2]: up to 13.25; IC50 [3]: 43 µM; Resistant Factor, SGC-7901 [3]: 10.97; IC50 [4]: > 200 µM; Resistant Factor, A2780 [4]: > 13.25; IC50 [5]: 3.92 µM; IC50 [6]: 15.1 µM; IC50 [7]: 18.2 µM

**Q.** How did the IC50 ([8]; Homo sapiens) turn out when `CC(=O)O[C@H]1C(=O)[C@@]2(C)[C@H]([C@H](OC(=O)c3ccccc3)[C@]3(O)C[C@H](OC(=O)[C@H](O)[C@@H](NC(=O)c4ccccc4)c4ccccc4)C(C)=C1C3(C)C)[C@]1(OC(C)=O)CO[C@@H]1C[C@@H]2O` [Taxol, reference compound] was run?
**A.** > 200 µM

**Q.** And the “Resistant Factor, HCT-8” value [8]?
**A.** >15.9

**Q.** What about the IC50 ([9]; Homo sapiens) of the same molecule?
**A.** 1.56 µM

**Q.** What about the IC50 ([10]; Homo sapiens, MCF7) of the same molecule?
**A.** 55 µM

**Q.** And the “Resistant Factor, MCF-7” value [10]?
**A.** 4.51

**Q.** And the IC50 ([11]; Homo sapiens)?
**A.** 66.1 µM

**Q.** And the “Resistant Factor, A549” value [11]?
**A.** 42.4

**Q.** And the IC50 ([12]; Homo sapiens, MCF7, 72 h)?
**A.** 12.2 µM

**Q.** And the IC50 ([13]; Homo sapiens)?
**A.** 12.6 µM

**Q.** What about the “resistant factor in taxol-resistant cancers (summary)” value [14] of the same molecule?
**A.** up to 42.4

**Q.** How did the IC50 [1] turn out when `Cc1ccnc(-c2cc(C)ccn2)c1.Cc1ccnc(-c2cc(C)ccn2)c1.Cc1ccnc(-c2cc(C)ccn2)c1.F[P-](F)(F)(F)(F)F.F[P-](F)(F)(F)(F)F.[Co+2]` [complex 1, [Co^II(4,4’-Me2-bpy)3](PF6)2] was run?
**A.** 15.6 µM

**Q.** And the “Resistant Factor, OV2008/C13 pair” value [1]?
**A.** 2.21

**Q.** And the IC50 [15]?
**A.** 15.4 µM

**Q.** What about the IC50 [8] of the same molecule?
**A.** 1.16 µM

**Q.** What about the “Resistant Factor, HCT-8” value [8] of the same molecule?
**A.** 0.37

**Q.** And the IC50 [16]?
**A.** 2.79 µM

**Q.** And the IC50 [17]?
**A.** 10.1 µM

**Q.** What about the IC50 [18] of the same molecule?
**A.** 13.5 µM

**Q.** And the IC50 [9]?
**A.** 9.59 µM

**Q.** What about the IC50 [3] of the same molecule?
**A.** 17.6 µM

**Q.** What about the “Resistant Factor, SGC-7901” value [3] of the same molecule?
**A.** 1.50

**Q.** What about the “Resistant Factor, MCF-7” value [10] of the same molecule?
**A.** 0.54

**Q.** What about the IC50 [10] of the same molecule?
**A.** 2.51 µM

**Q.** What about the IC50 [19] of the same molecule?
**A.** 9.45 µM

**Q.** What about the IC50 [11] of the same molecule?
**A.** 2.37 µM

**Q.** And the “Resistant Factor, A549” value [11]?
**A.** 0.25

**Q.** And the IC50 ([20]; HCT116 p53-/-, MTT, 72 h)?
**A.** 8.89 µM

**Q.** What about the “Resistant Factor, HCT116 p53-/- vs p53+/+” value ([20]; IC50 p53-/- over IC50 p53+/+) of the same molecule?
**A.** 0.52

**Q.** And the IC50 [4]?
**A.** 11.2 µM

**Q.** And the “Resistant Factor, A2780” value [4]?
**A.** 0.94

**Q.** And the IC50 ([12]; 72 h)?
**A.** 4.62 µM

**Q.** And the IC50 [21]?
**A.** 15.4 µM

**Q.** What about the IC50 [22] of the same molecule?
**A.** 7.39 µM

**Q.** And the IC50 [23]?
**A.** 3.43 µM

**Q.** What about the IC50 [13] of the same molecule?
**A.** 3.13 µM

**Q.** What about the IC50 [24] of the same molecule?
**A.** 4.06 µM

**Q.** And the IC50 [5]?
**A.** 11.7 µM

**Q.** What about the IC50 [6] of the same molecule?
**A.** 11.9 µM

**Q.** What about the IC50 [7] of the same molecule?
**A.** 7.06 µM

**Q.** What about the IC50 [25] of the same molecule?
**A.** 17.1 µM
